The values that follow come from patent publication US9415047B2, “Use of benzo five-membered nitrogen heterocyclic piperazine or piperidine derivatives” (Liaoning Emmy Biological Pharmaceutical Co., Ltd., priority 2012, dated 2016).

The term EC50 denotes the concentration needed to bring the measured effect to its halfway point. A low value points to greater potency.

Assay [1] deals with NA constricted rabbit aorta. Briefly: Relaxing effects on vascular smooth muscle constricted by noradrenaline (NA) in vitro. The settings on record: relaxation of rabbit aorta constricted by noradrenaline (10^−5 mol/L), mean±SEM, n=5; for EC50: Oryctolagus cuniculus. The procedure: Adrenaline hydrochloride (AD) (10^−5 mol/L) was added into a bath tube to induce constriction, when maximal constriction was achieved, the sample was completely flushed, K-H solution was changed for every 20 min. Contents in the tube was balanced for 60 min, when baseline recovered to be stable, noradrenaline bitartrate (NA) (10^−5 mol/L) was added to induce constriction. When the later maximal constriction response was basically consistent with the former one, the prepared compound solutions were subsequently added, including compound II-84 to II-123 solutions (1×10^−10-1×10^−2 mol/L), compound II-124 to II-157 solutions (1×10^−10-1×10^−3 mol/L), to record the waveforms. Relaxing percentage of the compound was used as Y axis, maximal relaxation response was 100%, negative logarithm of different concentration was used as X axis, to draw dose effect curve (expressed in mean±SEM ( ? ), n=5).

In assay [2] the test system is AD constricted rabbit aorta. The assay is described as follows: Relaxing effects on vascular smooth muscle constricted by adrenaline hydrochloride (AD) in vitro. The settings on record: relaxation of rabbit aorta constricted by adrenaline (10^−5 mol/L), mean±SEM, n=5; for EC50: Oryctolagus cuniculus. The procedure: Adrenaline hydrochloride (AD) (10^−5 mol/L) was added into a bath tube to induce constriction, when maximal constriction was achieved, the sample was completely flushed, K-H solution was changed for every 20 min. Contents in the tube was balanced for 60 min, when baseline recovered to be stable, the […] was added at the same concentration to induce constriction. When the later maximal constriction response was basically consistent with the former one, the prepared compound solutions were subsequently added, including compound II-1 to II-60 solutions (1×10^−8-1×10^−3 mol/L), compound II-84 to II-123 solutions (1×10^−10-1×10^−2 mol/L) and compound II-124 to II-157 solutions (1×10^−10˜1×10^−3 mol/L), to record the waveforms. Relaxing percentage of the compound was used as Y axis, maximal relaxation response was 100%, negative logarithm of different concentration was used as X axis, to draw dose effect curve (expressed in mean±SEM ( ? ), n=5). Compounds II-2 and II-3 had the most obvious relaxing effects (FIG. 1 and FIG. 8).

`Fc1ccc2c(C3CCN(CCCCn4nnc5ccccc54)CC3)noc2c1` [II-95, N-(4-(1-benzotriazolyl)butyl)-4-(3-(6-fluorobenzisoxazolyl))piperidine]: it took 1.86 µM to reach a half-maximal effect in assay [1] (EC50).
Still for that read-out and setting: the result for `N#Cc1ccc2nnn(CCCCN3CCC(c4noc5cc(F)ccc45)CC3)c2c1` [II-96, N-(4-(6-cyanobenzotriazolyl)butyl)-4-(3-(6-fluorobenzisoxazolyl))piperidine] reads 4.9 µM.
Still for that read-out and setting: under `COc1ccc2nnn(CCCN3CCC(c4nsc5cc(F)ccc45)CC3)c2c1` [II-100] stands 64.6 µM; under `COc1ccc2nnn(CCCN3CCC(c4n[nH]c5cc(F)ccc45)CC3)c2c1` [II-101], 37.2 µM.
In the case of `Clc1cccc(C2CCN(CCCCn3cnc4ccccc43)CC2)c1` [II-124, N-(4-(1H-benzimidazoyl-1-yl)butyl)-4-(3-chlorophenyl)piperidine], the “−logEC50” value in assay [1] was 5.11 ± 0.02. In assay [2], this molecule gave a 50% effective concentration (EC50) of 9.33 µM.
As to `Clc1cccc(C2CCN(CCCCn3nnc4ccccc43)CC2)c1` [II-125, N-(4-(1H-benzotriazole-1-yl)butyl)-4-(3-chlorophenyl)piperidine], the “−logEC50” value in assay [1] was found to be 5.27 ± 0.03. Besides, the concentration giving a half-maximal response (EC50) in assay [2] was 6.92 µM.
For `FC(F)(F)c1cccc(C2CCN(CCCCn3cnc4ccccc43)CC2)c1` [II-126, N-(4-(1H-benzimidazoyl-1-yl)butyl)-4-(3-trifluoromethylphenyl)piperidine], in that order: 6.32 ± 0.04 and 0.617 µM.
In the same order, the values of `FC(F)(F)c1cccc(C2CCN(CCCCn3nnc4ccccc43)CC2)c1` [II-127, N-(4-(1H-benzotriazole-1-yl)butyl)-4-(3-trifluoromethylphenyl)piperidine] are 6.45 ± 0.03 and 0.437 µM.
For `Fc1cccc(C2CCN(CCCCn3cnc4ccccc43)CC2)c1` [II-128, N-(4-(1H-benzimidazoyl-1-yl)butyl)-4-(3-fluorophenyl)piperidine], in that order: 4.67 ± 0.02 and 12.9 µM.
On to `COc1ccccc1C1CCN(CCCCn2cnc3ccccc32)CC1` [II-129, N-(4-(1H-benzimidazoyl-1-yl)butyl)-4-(2-methoxylphenyl)piperidine], for which, in assay [1], the “−logEC50” value came to 4.55 ± 0.03. In assay [2], this molecule gave an EC50 of 17.4 µM.
In the same order, the values of `Fc1ccc2nnn(CCCCN3CCC(c4cccc(C(F)(F)F)c4)CC3)c2c1` [II-130, N-(4-(6-fluoro-1H-benzotriazole-1-yl)butyl)-4-(3-trifluoromethylphenyl)piperidine] are 5.21 ± 0.04 and 4.9 µM.
For `COc1ccc2nnn(CCCCN3CCC(c4cccc(C(F)(F)F)c4)CC3)c2c1` [II-131, N-(4-(6-methoxyl-1H-benzotriazole-1-yl)butyl)-4-(3-trifluoromethylphenyl)piperidine], in that order: 4.77 ± 0.03 and 13.8 µM.
In the same order, the values of `N#Cc1ccc2nnn(CCCCN3CCC(c4cccc(C(F)(F)F)c4)CC3)c2c1` [II-132, N-(4-(6-cyano-1H-benzotriazole-1-yl)butyl)-4-(3-trifluoromethylphenyl)piperidine] are 4.53 ± 0.02 and 16.2 µM.
For the molecule `FC(F)(F)c1cccc(C2CCN(CCCOn3nnc4ccccc43)CC2)c1` [II-133, N-(4-(1H-benzotriazole-1-yl)propoxyl)-4-(3-trifluoromethylphenyl)piperidine], the “−logEC50” value in assay [1] is reported as 5.36 ± 0.05. In assay [2], the response was half-maximal at 2.75 µM (EC50).
In the same order, the values of `FC(F)(F)c1cccc(C2CCN(CCCOn3cnc4ccccc43)CC2)c1` [II-134, N-(4-(1H-benzimidazole-1-yl)propoxyl)-4-(3-trifluoromethylphenyl)piperidine] are 5.15 ± 0.06 and 4.9 µM.
Turning to `Cc1ccc2c(C3CCN(CCCn4nnc5ccccc54)CC3)noc2c1` [II-135, N-(3-(1H-benzotriazole-1-yl)propyl)-4-(3-(6-methylbenzisoxazolyl))piperidine], the EC50 in assay [1] is 5.5 µM; in assay [2], 3.55 µM.
As to `COc1ccc2c(C3CCN(CCCn4nnc5ccccc54)CC3)noc2c1` [II-136, N-(3-(1H-benzotriazole-1-yl)propyl)-4-(3-(6-methoxylbenzisoxazolyl))piperidine], the EC50 in assay [1] is 9.12 µM; in assay [2] it was 4.57 µM.
In the same order, the values of `Fc1ccc2c(C3CCN(CCCn4nnc5ccc(F)cc54)CC3)noc2c1` [II-137, N-(3-(6-fluoro-1H-benzotriazole-1-yl)propyl)-4-(3-(6-fluorobenzisoxazolyl))piperidine] are 1.86 µM and 2.45 µM.
`Fc1ccc2c(C3CCN(CCCn4nnc5ccc(Cl)cc54)CC3)noc2c1` [II-138, N-(3-(6-chloro-1H-benzotriazole-1-yl)propyl)-4-(3-(6-fluorobenzisoxazolyl))piperidine]: the EC50 in assay [1] is 6.03 µM; in assay [2], 3.8 µM.
As for `Cc1ccc2nnn(CCCN3CCC(c4noc5cc(F)ccc45)CC3)c2c1` [II-139, N-(3-(6-methyl-1H-benzotriazole-1-yl)propyl)-4-(3-(6-fluorobenzisoxazolyl))piperidine], in assay [1], the “−logEC50” value was found to be 5.35 ± 0.03. The EC50 in assay [2] is 4.17 µM.
As for `O=Cc1ccc2nnn(CCCN3CCC(c4noc5cc(F)ccc45)CC3)c2c1` [II-141, N-(3-(6-formoxyl-1H-benzotriazole-1-yl)propyl)-4-(3-(6-fluorobenzisoxazolyl))piperidine], the “−logEC50” value in assay [1] came to 5.73 ± 0.04. This molecule gave an EC50 in assay [2] of 2.75 µM.
`COc1ccc2nnn(CCCN3CCC(c4noc5ccccc45)CC3)c2c1` [II-142, N-(3-(6-methoxylbenzotriazolyl)propyl)-4-(3-benzisoxazolyl)piperidine]: in assay [1], the “−logEC50” value was 6.07 ± 0.04. The same molecule gave a concentration for a half-maximal effect (EC50) in assay [2] of 0.776 µM.
Turning to `COc1ccc2c(C3CCN(CCCCn4nnc5ccc(C#N)cc54)CC3)noc2c1` [II-146, N-(4-(6-cyanobenzotriazolyl)butyl)-4-(3-(6-methoxylbenzisoxazolyl))piperidine], in assay [1], the “−logEC50” value is 5.09 ± 0.04. The molecule also showed a concentration for a half-maximal effect (EC50) in assay [2] of 5.89 µM.
Turning to `c1coc(C2CCN(CCCCn3cnc4ccccc43)CC2)c1` [II-152, N-(4-(1H-benzimidazoyl-1-yl)butyl)-4-(2-furyl)piperidine], the “−logEC50” value in assay [1] was 4.23 ± 0.03. This molecule also showed an EC50 in assay [2] of 37.2 µM.
In the same order, the values of `c1ccc2c(c1)ncn2CCCCN1CCC(c2ccncc2)CC1` [II-153, N-(4-(1H-benzimidazoyl-1-yl)butyl)-4-(4-pyridyl)piperidine] are 4.66 ± 0.02 and 13.8 µM.
Turning to `c1cnc(C2CCN(CCCCn3cnc4ccccc43)CC2)nc1` [II-154, N-(4-(1H-benzimidazoyl-1-yl)butyl)-4-(2-pyrimidinyl)piperidine], the entries for the “−logEC50” value in assay [1] and in assay [2] were 4.52 ± 0.04 and 4.72 ± 0.03, respectively.
Turning to `c1ccc2c(c1)nnn2CCCCN1CCC(C2CCCCC2)CC1` [II-155, N-(4-(1H-benzotriazole-1-yl)butyl)-4-cyclohexyl piperidine], the “−logEC50” value in assay [1] was found to be 4.44 ± 0.05; in assay [2], 4.39 ± 0.05.
For `c1ccc2c(C3CCN(CCCCn4nnc5ccccc54)CC3)cccc2c1` [II-156, N-(4-(1H-benzotriazole-1-yl)butyl)-4-(1-naphthyl)piperidine], in that order: 4.34 ± 0.04 and 4.22 ± 0.06.
